# Test results as given in US7507716B2, “Method for treating pain with prolactin antagonists” (Board of Regents, The University of Texas System, priority 2005, dated 2009).
# System: PRL-R
# Test: Western blot of PRL-R isoforms in TG of OVX rats
# Assay type: in vivo, rat
# Settings: TG of OVX rats, 2, 20 or 80 μg/kg s.c. daily for 10 days
# Text: There are two isoforms of the rat PRL receptor (PRL-R) that differ in the length of their cytoplasmic tail and are therefore termed the long and short isoforms. […] Moreover, the differential expression of these receptors is regulated by estrogen in certain tissues (Sakaguchi et al., 1994; Pi et al., 2003). To determine whether estrogen regulates the expression of the PRL-R in the female TG, protein extracts prepared from TG of OVX rats and subjected to Western blot analysis using an anti-PRL-R antibody that recognizes both the long and the short PRL-R isoforms. FIG. 3A depicts a representative immunoblot of this experiment. The antibody recognized two bands migrating at approximately 100 KDa and 40 KDa corresponding to the long and short PRL-R isoforms respectively. Blots were stripped and probed with an antibody against beta-actin to normalize for loading differences. […] The data are presented as mean±SEM (n=4/group, *=p<0.05 and **=p<0.01; one-way ANOVA with Bonferroni's post hoc test).
# At the end of the 10th day, animals were used for behavioral experiments or sacrificed by decapitation and the TG of each individual animal were harvested. Harvested tissue was used for RNA isolation, total protein isolation, or for preparing primary cultures of TG neurons. […]
smiles,measurement,value
"C[C@]12CC[C@@H]3c4ccc(O)cc4CC[C@H]3[C@@H]1CC[C@@H]2O [estradiol, 17-β-estradiol]",expression of the long form of PRL-R,increases expression of the long form of PRL-R in the TG of OVX rats in a dose-dependent manner
same,expression of the short form of the PRL-R,does not appear to significantly affect expression of the short form of the PRL-R
